Molecular target: T1, p53 Y220C (Homo sapiens, UniProt P04637, Y220C)
T1 construct: The recombinant protein was a truncation mutant containing only amino acids 94-312 of p53; made in house; host or cells: E. coli
Assay: In vitro DNA binding activity assay (HTRF / TR-FRET): stabilization of p53 Y220C and increase of its DNA binding activity
Format: biochemical
Conditions: recombinant His-tagged p53 Y220C DNA binding domain (aa 94-312), biotin-labeled consensus DNA, incubated at 27° C. or 29° C. for 60 min
How it was run: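 Compound effect on DNA binding of recombinant His-p53 Y220C (E. coli) to biotin-labeled consensus DNA, expressed as SC150, the concentration giving 50% increase versus untreated. Serial 3-fold DMSO dilutions of 4.5 mM stocks; room-temperature steps of 15 then 20 min.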

T1 sequence (P04637 94-312, change not shown): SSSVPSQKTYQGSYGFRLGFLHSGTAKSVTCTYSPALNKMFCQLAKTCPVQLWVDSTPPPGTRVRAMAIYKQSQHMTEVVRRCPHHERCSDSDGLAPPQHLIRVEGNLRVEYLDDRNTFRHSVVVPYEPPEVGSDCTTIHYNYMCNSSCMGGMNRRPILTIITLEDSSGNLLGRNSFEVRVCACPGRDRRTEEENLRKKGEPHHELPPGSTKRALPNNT

Row | SC150 (concentration of the compound required to increase the DNA binding activity by 50%) | Compound
1 | + (+ = 0 μM ≤ SC150 < 0.05 μM) | COc1cc(S(C)(=O)=O)ccc1NCC#Cc1cc2c(N[C@@H]3CCOC[C@@H]3F)cccc2n1CC(F)(F)F [Compound 1026A, N-[(3R,4R)-3-fluorooxan-4-yl]-2-{3-[(4-methanesulfonyl-2-methoxyphenyl)amino]prop-1-yn-1-yl}-1-(2,2,2-trifluoroethyl)-1H-indol-4-amine]
2 | ++ (++ = 0.05 μM ≤ SC150 < 0.1 μM) | COc1cc(S(C)(=O)=O)ccc1NCC#Cc1cc2c(N[C@H]3C[C@@H](C)O[C@@H](C)C3)cccc2n1CC(F)(F)F [Compound 1027A, 2-{3-[(4-methanesulfonyl-2-methoxyphenyl)amino]prop-1-yn-1-yl}-N-[(2R,4R,6S)-2,6-dimethyloxan-4-yl]-1-(2,2,2-trifluoroethyl)-1H-indol-4-amine]
3 | +++ (+++ = 0.1 μM ≤ SC150 < 0.2 μM) | COc1cc(S(C)(=O)=O)ccc1NCC#Cc1cc2c(N[C@@H]3C[C@@H](C)O[C@@H](C)C3)cccc2n1CC(F)(F)F [Compound 1028A, 2-{3-[(4-methanesulfonyl-2-methoxyphenyl)amino]prop-1-yn-1-yl}-N-[(2R,4S,6S)-2,6-dimethyloxan-4-yl]-1-(2,2,2-trifluoroethyl)-1H-indol-4-amine]
4 | +++ (+++ = 0.1 μM ≤ SC150 < 0.2 μM) | COc1cc(C(N)=O)ccc1NCC#Cc1cc2c(N[C@H]3C[C@@H](C)O[C@@H](C)C3)cccc2n1CC(F)(F)F [Compound 1029A, 3-methoxy-4-{[3-(4-{[(2R,4R,6S)-2,6-dimethyloxan-4-yl]amino}-1-(2,2,2-trifluoroethyl)-1H-indol-2-yl)prop-2-yn-1-yl]amino}benzamide]
5 | ++ (++ = 0.05 μM ≤ SC150 < 0.1 μM) | COc1cc(C(N)=O)ccc1NCC#Cc1cc2c(N[C@@H]3C[C@@H](C)O[C@@H](C)C3)cccc2n1CC(F)(F)F [Compound 1030A, 3-methoxy-4-{[3-(4-{[(2R,4S,6S)-2,6-dimethyloxan-4-yl]amino}-1-(2,2,2-trifluoroethyl)-1H-indol-2-yl)prop-2-yn-1-yl]amino}benzamide]
6 | + (+ = 0 μM ≤ SC150 < 0.05 μM) | COc1cc(S(N)(=O)=O)ccc1NCC#Cc1cc2c(N[C@@H]3C[C@@H](C)O[C@@H](C)C3)cccc2n1CC(F)(F)F [Compound 1031A, 3-methoxy-4-{[3-(4-{[(2R,4S,6S)-2,6-dimethyloxan-4-yl]amino}-1-(2,2,2-trifluoroethyl)-1H-indol-2-yl)prop-2-yn-1-yl]amino}benzene-1-sulfonamide]
7 | ++ (++ = 0.05 μM ≤ SC150 < 0.1 μM) | COc1cc(S(N)(=O)=O)ccc1NCC#Cc1cc2c(N[C@H]3C[C@@H](C)O[C@@H](C)C3)cccc2n1CC(F)(F)F [Compound 1032A, 3-methoxy-4-{[3-(4-{[(2R,4R,6S)-2,6-dimethyloxan-4-yl]amino}-1-(2,2,2-trifluoroethyl)-1H-indol-2-yl)prop-2-yn-1-yl]amino}benzene-1-sulfonamide]
8 | + (+ = 0 μM ≤ SC150 < 0.05 μM) | COc1cc(C(C)(C)C#N)ncc1NCC#Cc1cc2c(NC3CCS(=O)(=O)CC3)cccc2n1CC(F)(F)F [Compound 1034A, 2-{5-[(3-{4-[(1,1-dioxo-1λ^6-thian-4-yl)amino]-1-(2,2,2-trifluoroethyl)-1H-indol-2-yl}prop-2-yn-1-yl)amino]-4-methoxypyridin-2-yl}-2-methylpropanenitrile]
9 | + (+ = 0 μM ≤ SC150 < 0.05 μM) | CS(=O)(=O)c1ccc(NCC#Cc2cc3c(NC4CCS(=O)(=O)CC4)cccc3n2CC(F)(F)F)c(OC(F)(F)F)c1 [Compound 1035A, 4-{[2-(3-{[4-methanesulfonyl-2-(trifluoromethoxy)phenyl]amino}prop-1-yn-1-yl)-1-(2,2,2-trifluoroethyl)-1H-indol-4-yl]amino}-1λ^6-thiane-1,1-dione]
10 | + (+ = 0 μM ≤ SC150 < 0.05 μM) | COc1cc(S(=O)(=O)N2CCOCC2)ccc1NCC#Cc1cc2c(NC3CCS(=O)(=O)CC3)cccc2n1CC(F)(F)F [Compound 1036A, 4-{[2-(3-{[2-methoxy-4-(morpholine-4-sulfonyl)phenyl]amino}prop-1-yn-1-yl)-1-(2,2,2-trifluoroethyl)-1H-indol-4-yl]amino}-1λ^6-thiane-1,1-dione]
11 | ++ (++ = 0.05 μM ≤ SC150 < 0.1 μM) | CN(C)CCOc1cc(S(C)(=O)=O)ccc1NCC#Cc1cc2c(NC3CCS(=O)(=O)CC3)cccc2n1CC(F)(F)F [Compound 1037A, 4-({2-[3-({2-[2-(dimethylamino)ethoxy]-4-methanesulfonylphenyl}amino)prop-1-yn-1-yl]-1-(2,2,2-trifluoroethyl)-1H-indol-4-yl}amino)-1λ^6-thiane-1,1-dione]
12 | + (+ = 0 μM ≤ SC150 < 0.05 μM) | COc1cc(S(=O)(=O)N(C)CCO)ccc1NCC#Cc1cc2c(NC3CCS(=O)(=O)CC3)cccc2n1CC(F)(F)F [Compound 1038A, 4-[(3-{4-[(1,1-dioxo-1λ^6-thian-4-yl)amino]-1-(2,2,2-trifluoroethyl)-1H-indol-2-yl}prop-2-yn-1-yl)amino]-N-(2-hydroxyethyl)-3-methoxy-N-methylbenzene-1-sulfonamide]

The remaining lines, values behind:

Row | Compound | SC150 (concentration of the compound required to increase the DNA binding activity by 50%)
13 | CCC(=O)Oc1cc(S(C)(=O)=O)ccc1NCC#Cc1cc2c(NC3CCOCC3)cccc2n1CC(F)(F)F [Compound 1014A, 5-methanesulfonyl-2-[(3-{4-[(oxan-4-yl)amino]-1-(2,2,2-trifluoroethyl)-1H-indol-2-yl}prop-2-yn-1-yl)amino]phenyl propanoate] | + (+ = 0 μM ≤ SC150 < 0.05 μM)
14 | COc1cc(S(C)(=O)=O)ccc1NCC#Cc1cc2c(N[C@@H]3CCO[C@@H](C)C3)cccc2n1CC(F)(F)F [Compound 1016A, 2-{3-[(4-methanesulfonyl-2-methoxyphenyl)amino]prop-1-yn-1-yl}-N-[(2S,4R)-2-methyloxan-4-yl]-1-(2,2,2-trifluoroethyl)-1H-indol-4-amine] | + (+ = 0 μM ≤ SC150 < 0.05 μM)
15 | COc1cc(S(C)(=O)=O)ccc1NCC#Cc1cc2c(N[C@H]3CCO[C@@H](C)C3)cccc2n1CC(F)(F)F [Compound 1017A, 2-{3-[(4-methanesulfonyl-2-methoxyphenyl)amino]prop-1-yn-1-yl}-N-[(2S,4S)-2-methyloxan-4-yl]-1-(2,2,2-trifluoroethyl)-1H-indol-4-amine] | + (+ = 0 μM ≤ SC150 < 0.05 μM)
16 | COc1cc(S(N)(=O)=O)ccc1NCC#Cc1cc2c(N[C@@H]3CCO[C@@H](C)C3)cccc2n1CC(F)(F)F [Compound 1018A, 3-methoxy-4-{[3-(4-{[(2S,4R)-2-methyloxan-4-yl]amino}-1-(2,2,2-trifluoroethyl)-1H-indol-2-yl)prop-2-yn-1-yl]amino}benzene-1-sulfonamide] | + (+ = 0 μM ≤ SC150 < 0.05 μM)
17 | COc1cc(S(N)(=O)=O)ccc1NCC#Cc1cc2c(N[C@H]3CCO[C@@H](C)C3)cccc2n1CC(F)(F)F [Compound 1019A, 3-methoxy-4-{[3-(4-{[(2S,4S)-2-methyloxan-4-yl]amino}-1-(2,2,2-trifluoroethyl)-1H-indol-2-yl)prop-2-yn-1-yl]amino}benzene-1-sulfonamide] | + (+ = 0 μM ≤ SC150 < 0.05 μM)
18 | COc1cc(C(N)=O)ccc1NCC#Cc1cc2c(N[C@@H]3CCO[C@@H](C)C3)cccc2n1CC(F)(F)F [Compound 1020A, 3-methoxy-4-{[3-(4-{[(2S,4R)-2-methyloxan-4-yl]amino}-1-(2,2,2-trifluoroethyl)-1H-indol-2-yl)prop-2-yn-1-yl]amino}benzamide] | + (+ = 0 μM ≤ SC150 < 0.05 μM)
19 | COc1cc(C(N)=O)ccc1NCC#Cc1cc2c(N[C@H]3CCO[C@@H](C)C3)cccc2n1CC(F)(F)F [Compound 1021A, 3-methoxy-4-{[3-(4-{[(2S,4S)-2-methyloxan-4-yl]amino}-1-(2,2,2-trifluoroethyl)-1H-indol-2-yl)prop-2-yn-1-yl]amino}benzamide] | + (+ = 0 μM ≤ SC150 < 0.05 μM)
20 | COc1cc(S(C)(=O)=O)ccc1NCC#Cc1cc2c(N[C@H]3CCOC[C@@H]3OC)cccc2n1CC(F)(F)F [Compound 1023A, 2-(3-((2-methoxy-4-(methylsulfonyl)phenyl)amino)prop-1-yn-1-yl)-N-((3R,4S)-3-methoxytetrahydro-2H-pyran-4-yl)-1-(2,2,2-trifluoroethyl)-1H-indol-4-amine] | ++ (++ = 0.05 μM ≤ SC150 < 0.1 μM)
21 | COc1cc(S(C)(=O)=O)ccc1NCC#Cc1cc2c(N[C@H]3CCOC[C@H]3OC)cccc2n1CC(F)(F)F [Compound 1024A, 2-(3-((2-methoxy-4-(methylsulfonyl)phenyl)amino)prop-1-yn-1-yl)-N-((3S,4S)-3-methoxytetrahydro-2H-pyran-4-yl)-1-(2,2,2-trifluoroethyl)-1H-indol-4-amine] | + (+ = 0 μM ≤ SC150 < 0.05 μM)
22 | COc1cc(S(C)(=O)=O)ccc1NCC#Cc1cc2c(N[C@H]3CCOC[C@H]3F)cccc2n1CC(F)(F)F [Compound 1025A, N-[(3S,4S)-3-fluorooxan-4-yl]-2-{3-[(4-methanesulfonyl-2-methoxyphenyl)amino]prop-1-yn-1-yl}-1-(2,2,2-trifluoroethyl)-1H-indol-4-amine] | + (+ = 0 μM ≤ SC150 < 0.05 μM)

Reference: US12428406B2 (PMV Pharmaceuticals, Inc., priority 2019, dated 2025)
